Experimental data reported in PMC4770093, “The role of kinetic context in apparent biased agonism at GPCRs” (Nature Communications, 2016).

Columns and labels:
D2R = assay: Simulation of receptor occupancy over time from kon and koff; settings: simulation with a KD concentration of each agonist
Source text: We extended these studies with a Tag-lite receptor binding assay using a D2R construct with an amino-terminal SNAP tag and the fluorescently labelled agonist (±)-4′-amino-2-(N-phenethyl-N-propyl)-amino-5-hydroxytetralin (PPHT). […] The association rate of a ligand is often thought to be diffusion limited. […] Using these kinetic parameters, we performed a simulation to estimate the receptor occupancy of a KD concentration of each agonist over time (Fig. 4e).
Kinetic binding parameters of kon (a), koff (b) and t1/2 (c) were determined in a competition kinetic binding assay using a Tag-lite binding assay and the fluorescently labelled agonist PPHT as the tracer ligand (Supplementary Table 6). […] All values are expressed as mean±s.e.m. from three experiments. (e) The values of kon and koff obtained in the competition kinetic assay were used to simulate receptor occupancy over time using equation (9) and the concentration of ligand equivalent to its KD (see Supplementary Table 6).
where Ymax reflects maximum binding of a concentration of ligand and kob is determined by equation (8).

[1] = target: SNAP-tagged human dopamine D2L (Homo sapiens, UniProt P14416); assay: Tag-lite PPHT-red competition kinetic binding (HTRF); settings: SNAP-D2LR-CHO membranes; 100 μM Gpp(NH)p; 37 °C
Procedure: To terbium label the SNAP-CHO-D2L cells, cell culture medium was removed from the T175 cm^2 flasks containing confluent adherent SNAP-CHO-D2L cells. Twelve millilitres of Tag-lite labelling medium containing 100 nM of SNAP-Lumi4-Tb was added to the flask and incubated for 1 h at 37 °C under 5% CO2. Cells were then washed 2 × in 15 ml PBS (GIBCO, Invitrogen, Paisley, UK) to remove the excess of SNAP-Lumi4-Tb and detached using 5 ml of enzyme-free Hank's-based cell dissociation buffer (GIBCO, Invitrogen, Paisley, UK) and collected in a vial containing 5 ml of DMEM/Nutrient F-12 Ham, 2 mM glutamine supplemented 10% FCS. Cells were pelleted by centrifugation (5 min at 1,500 r.p.m.) and the pellets were frozen to −80 °C before preparation of membranes.
All subsequent steps described were conducted at 4 °C, to avoid receptor degradation. Twenty millilitres of wash buffer (10 mM HEPES and 10 mM EDTA pH 7.4) was added to the pellet of terbium-labelled cells (equivalent to 1 × t175 cm^2). […] The supernatant was discarded and the pellet was homogenized and centrifuged as described above in wash buffer. The final pellet was suspended in ice-cold 10 mM HEPES and 0.1 mM EDTA pH 7.4, at a concentration of 5–10 mg m^−1. Protein concentration was determined by the bicinchoninic acid assay using BSA as a standard and aliquots maintained at −80 °C until required. Before their use, the frozen membranes were thawed and the membranes suspended in the assay buffer at a membrane concentration of 0.1 mg m^−1.
GppNHp was included to remove the G protein-coupled population of receptors that can result in two binding sites in membrane preparations, because the Motulsky–Mahan model is only appropriate for ligands competing at a single site. […] Both fluorescent ligands and unlabelled compounds were diluted in the binding assay buffer.
Kinetics acquisitions at intervals of 20 s were recorded using the standard settings of the reader for HTRF measurements. […] Specific binding was determined by subtracting the nonspecific HTRF ratio from the total HTRF ratio.
To accurately determine association rate (kon) and dissociation rate (koff) values, the observed rate of association (kob) was calculated using at least four different concentrations of PPHT-red. The appropriate concentration of PPHT-red was incubated in a 384-well Optiplate with human SNAP-D2LR-CHO cell membranes (2 μg per well) in assay binding buffer at 37 °C (final assay volume, 40 μl). The degree of PPHT-red bound to the receptor was assessed at multiple time points by HTRF detection, to allow construction of association kinetic curves. The resulting data were globally fitted to the association kinetic model (equation (8)) to derive a single best-fit estimate for kon and koff as described under ‘Data analysis'.
On the same 384-well Optiplate plate, the kinetic parameters of unlabelled ligand were assessed using a competition kinetic binding assay. This approach involves the simultaneous addition of both fluorescent ligand and competitor to receptor preparation so that at t=0 all receptors are unoccupied. […] The degree of PPHT-red bound to the receptor was assessed at multiple time points by HTRF detection. Nonspecific binding was determined as the amount of HTRF signal detected in the presence of spiperone (1 μM) and was subtracted from each time point. Each time point was conducted on the same 384-well plate incubated at 37 °C with shaking (100 r.p.m.) after every cycle.
Data were globally fitted using equation (7), to simultaneously calculate kon and koff.

SNAP-tagged human dopamine D2L, sequence (P14416 whole entry): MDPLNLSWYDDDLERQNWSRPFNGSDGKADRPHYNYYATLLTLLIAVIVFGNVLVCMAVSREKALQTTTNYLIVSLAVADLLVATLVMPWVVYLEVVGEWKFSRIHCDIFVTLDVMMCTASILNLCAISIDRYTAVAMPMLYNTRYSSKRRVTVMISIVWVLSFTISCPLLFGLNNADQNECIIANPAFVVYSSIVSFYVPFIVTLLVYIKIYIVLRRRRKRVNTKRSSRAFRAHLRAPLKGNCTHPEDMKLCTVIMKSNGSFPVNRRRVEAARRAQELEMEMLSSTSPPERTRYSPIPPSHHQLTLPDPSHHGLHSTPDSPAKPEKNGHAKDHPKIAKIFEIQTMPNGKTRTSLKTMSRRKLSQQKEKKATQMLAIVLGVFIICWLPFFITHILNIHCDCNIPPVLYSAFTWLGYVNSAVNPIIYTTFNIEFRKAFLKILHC

| SMILES | time to maximal receptor occupancy (D2R) [min] | rate of dissociation of the fluorescent tracer [1] [min⁻¹] |
| --- | --- | --- |
| NCCc1ccc(O)c(O)c1 [Dopamine, dopamine] | ≤ 1 |  |
| CN(C)C(=O)N[C@H]1CC[C@H](CCN2CCN(c3cccc(Cl)c3Cl)CC2)CC1 [Cariprazine, cariprazine] | ~10 |  |
| CCCN(CCc1ccc(N)cc1)C1CCc2c(O)cccc2C1 (racemic) [PPHT, (±)-4′-amino-2-(N-phenethyl-N-propyl)-amino-5-hydroxytetralin] |  | 0.45 |
